# Values of other authors, collected in US20110229418A1, “Compositions and Methods of Treating and Preventing Lung Cancer” (priority 2010, published 2011).
# Like-named read-outs stand apart in the source and are kept apart here.
# Tests used:
# lung cancer cell [1] = settings: in vivo
# lung cancer cell [2] = settings: in vitro
# [3] = patients with type 2 diabetes, compared with those that did not use metformin
# [4] = long-term treatment
# [5] = tested on: tobacco carcinogen-induced lung tumorigenesis; settings: mice
# Lewis lung LLC1 cells = settings: mice injected with Lewis lung LLC1 cells, orally administered
# [6] = tested on: AMP activated protein kinase (AMPK) pathway
smiles,measurement,setting,value
CN(C)C(=N)N=C(N)N [metformin],lung cancer cell growth,lung cancer cell [1],inhibited
same,sensitization to ionizing radiation,human lung cancer cells,sensitizes human lung cancer cells to ionizing radiation
same,lung cancer cell growth,lung cancer cell [2],inhibited
same,cancer mortality,[3],lower cancer mortality
same,adverse effects,[4],few adverse effects
same,tobacco carcinogen-induced lung tumorigenesis,[5],prevents tobacco carcinogen-induced lung tumorigenesis
same,tumor growth,Lewis lung LLC1 cells; control diet,no effect on tumor growth
same,tumor growth,Lewis lung LLC1 cells; high-energy diet,reduce tumor growth
same,AMPK pathway activation,[6],activates the AMP activated protein kinase (AMPK) pathway
